For one data set, the target named is T1, PSMA (Homo sapiens, UniProt Q04609).
T1 construct: expressed in transfected cells; host or cells: PC3pip cells (retrovirally transfected, from Dr. Michel Sadelain, MSKCC)
Description: Competitive binding assay against 3H-ZJ24 on PC3pip cells. As to conditions: 10 nM 3H-ZJ24, read-out: IC50, competition binding to PSMA. How it is done: The assay was carried as previously reported by incubation PC3pip cells with different concentrations of drug conjugates in the presence of 10 nM N—[N—[(S)-1,3-dicarboxypropyl]carbamoyl]-S-[^3H]-methyl-L-cysteine (^3H-ZJ24) (GE Healthcare Life Sciences, Pittsburgh, Pa.). Radioactivity of cell pellet was counted by scintillation counter. The concentration required to inhibit 50% of binding was determined (IC50) by GraphPad Prism 3.0.

A further data set relates to PC3Pip flank tumors. Kind of data set: Example 1 mouse PC3Pip flank tumor xenograft study. The settings on record: 2 mg/kg doxorubicin or molar equivalent, day 0, 7, 14, i.v. Type of data set: in vivo, mice. How it is done: All animal procedures were performed according to the protocols approved by the Institutional Animal Care and Use Committee (IACUC). Our approval is Case Western Reserve University IACUC #2015-0033. Athymic nude mice aged 6-8 weeks were implanted subcutaneously with 1×10^6 PC3Pip cells in 100 μL Matrigel on the right flank. Tumors were allowed to grow for two weeks. Mice were then treated with three doses of free doxorubicin or PSMA-1-MMCCH-Dox in PBS on day 0, 7, and 14 of the study via tail vein injection. Dose used was 2 mg/kg doxorubicin, or the equivalent molar dosage of the PSMA-targeted prodrug. Tumor dimensions were measured using calipers twice per week, and mouse weights were recorded on these days, as well. The study duration was 21 days.

The next data set has as its system PC3flu cells. Kind of data set: Example 1 cytotoxicity assay (Dojindo CCK8), PSMA-negative cells. In kind it is cell-based. The settings on record: continuous 48 hours. The procedure:
(§1) PC3Pip and PC3Flu cells (2000 cells/100 μL/well) were plated in 96 well plates and rested for 24 hours to adhere to the plate surface. To each well, we added 10 μL of an 11× concentrated solution of doxorubicin or conjugate. Each drug dose was tested in groups of six wells. Dojindo CCK8 assays were used to determine relative cell survival of treated wells compared with untreated controls. This is a […] assay for determination of cell viability and proliferation. A water-soluble tetrazolium salt, WST-8, is reduced by dehydrogenase activity in the cell which produces an orange dye with relative amounts quantified by absorbance. Briefly, 10 μL assay solution was added to each well, the plate was left to incubate while orange color was produced, the absorption of the solution in the plate was read at 450 nm, and the cell viabilities were calculated.

Data set [1] relates to PC3pip cells. Description: Example 1 cytotoxicity assay (Dojindo CCK8), PSMA-expressing cells. As to conditions: continuous 48 hours. In kind it is cell-based. The procedure:
as §1

The subject of the next data set is PC3Pip and PC3Flu cells. Kind of data set: Example 1 in vitro cellular uptake (doxorubicin fluorescence microscopy). Type of data set: cell-based. As to conditions: 1 μM, 90 minutes or 48 hours. The procedure:
PC3Pip and PC3flu cells (1.5×10^5) were plated on coverslips and allowed to adhere for 36-48 hours. Cells were incubated in 1 μM of free doxorubicin or the various PSMA-1-Doxorubicin conjugates in RPMI media. Similar experiments are reported widely in the literature, with doses usually in the μM range because of doxorubicin's relatively dim fluorescence, at least compared with some of the commercially available dyes used in our lab. This dose was chosen to balance that relatively dim fluorescence with a goal of attempting to maintain selectivity.
Next, cells were washed 3 times with RPMI media, fixed with 4% paraformaldehyde for 10 minutes, and washed twice with phosphate-buffered saline (PBS). The cells were counterstained with DAPI nuclear staining, mounted on microscope slides with a 50% mounting solution mixture of PBS and glycol, and the coverslips were sealed with clear nail polish. Fluorescent imaging was performed with Leica DM4000B fluorescence microscopy. DAPI imaging used the Blue filter with excitation/emission at 410/455 nm. Doxorubicin was imaged with the Texas Red filter with Ex/Em 587/612 nm.

Data set [2] deals with heterotopic PC3pip tumors. Kind of data set: Heterotopic PC3pip tumor survival / antitumor study. Type of data set: in vivo. From the text:
Male athymic nude mice were implanted subcutaneously with 1×10^6 of PC3pip cells under the right dorsum of the mice. When tumor size reached approximately 100 mm^3 (tumor volume=Length×width^2/2), mice received drugs through tail vein injection. […] Animals were weighed and tumor size measured every other day for 90 days. Cures were defined as no tumor present at end of the 90-day study. When tumors became too large or animals were moribund they were euthanized. Five mice were used in each group.

Data set [3] in a line: Maximum tolerated dose (single i.v. dose). In kind it is in vivo, mice. The settings on record: single dose i.v., tumor-free athymic nude mice, 14 days. An excerpt: Mice were monitored daily for 14 days.
Another data set concerns α-tubulin. Kind of data set: Immunofluorescence analysis of alpha-tubulin in PC3pip and PC3flu cells. Type of data set: cell-based. The settings on record: 5 nM, 24 hours. The procedure:
Cells on coverslips at about 70% confluency were incubated with 5 nM of MMAE, PSMA-1-VcMMAE-Cy5.5 or PSMA-1-McMMAE-Cy5.5 for 24 hours. Cells were washed and fixed with 4% paraformaldehyde for 10 minutes, permeabilized with 0.1% Triton™ X-100 for 10 minutes, and blocked with 1% BSA for 1 hour at room temperature. Alpha-tubulin (B5-1-2) Alexa Fluor 488 Mouse Monoclonal Antibody (Invitrogen) was then added at 2 μg/mL in 0.1% BSA and incubated for 3 hours at room temperature. Cells were counterstained with DAPI, mounted with Fluor-Mount aqueous mounting solution, and observed under Leica DM4000B fluorescence microscopy at 40×.

The subject of data set [4] is PC3pip cells. Kind of data set: In vitro cytotoxicity assay (CCK-8, 72 h), PSMA-positive cells. In kind it is cell-based. The settings on record: 72 hours; PC3flu IC50 over PC3pip IC50. How it is done:
Cells (1,000/well) were seeded in 96-well culture plates the day before treatment. Cells were incubated with various concentrations of drugs for 72 hours and cell viability evaluated by CCK-8 (Dojindo). The concentration required to reach 50% of cell proliferation was determined (IC50) by GraphPad Prism 3.0.

*1 amine or outer side, *2 acyl side, *3 side chain or, on linkers, in order; H or OH if unused. Where a SMILES comes first, the peptide text is derived from it. [ ]: non-standard residue; d: D form. The star is where a group is joined. Dolaproine = CO[C@@H]([C@@H]1CCCN1)[C@@H](C)C(=O)O; Dil = CC[C@H](C)[C@H](NC)[C@@H](CC(=O)O)OC; γGlu = O=C(O)[C@H](CCC(=O)[*:2])N[*:1]; X4 = C[C@@H](N*)[C@@H](O)c1ccccc1; X1 = O=C(C1CCC(CN[*:1])CC1)[*:2]; NMeV = CN[C@H](C(=O)O)C(C)C; CO = O=C([*:1])[*:2]; Ahx = NCCCCCC(=O)O

From US11202836B2, “PSMA targeted conjugate compounds and uses thereof” (CASE WESTERN RESERVE UNIVERSITY, priority 2018, dated 2021) come the findings set out here.

T1 sequence (Q04609 whole entry): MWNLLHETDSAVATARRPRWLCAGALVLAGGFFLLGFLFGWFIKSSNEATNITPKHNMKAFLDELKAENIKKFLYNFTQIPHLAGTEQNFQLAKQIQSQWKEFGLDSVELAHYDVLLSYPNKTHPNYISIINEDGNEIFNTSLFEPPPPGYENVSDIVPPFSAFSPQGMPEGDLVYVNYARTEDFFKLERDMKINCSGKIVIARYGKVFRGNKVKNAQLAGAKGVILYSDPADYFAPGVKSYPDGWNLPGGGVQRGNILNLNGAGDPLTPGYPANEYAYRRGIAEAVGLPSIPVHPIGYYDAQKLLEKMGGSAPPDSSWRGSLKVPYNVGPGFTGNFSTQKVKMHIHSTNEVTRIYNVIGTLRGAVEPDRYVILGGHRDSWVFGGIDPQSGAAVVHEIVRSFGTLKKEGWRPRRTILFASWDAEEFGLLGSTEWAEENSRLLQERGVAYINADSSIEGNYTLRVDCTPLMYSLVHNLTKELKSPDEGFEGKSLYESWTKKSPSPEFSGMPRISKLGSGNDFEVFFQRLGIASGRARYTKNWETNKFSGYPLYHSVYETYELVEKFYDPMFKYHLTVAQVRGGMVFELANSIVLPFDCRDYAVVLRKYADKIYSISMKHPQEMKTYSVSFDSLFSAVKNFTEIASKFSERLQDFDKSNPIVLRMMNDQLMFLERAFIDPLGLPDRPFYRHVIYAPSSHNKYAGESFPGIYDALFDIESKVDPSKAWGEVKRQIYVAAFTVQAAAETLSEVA

A word on the IC50: it is the concentration needed to halve the response being measured. `NCCCC[C@H](NC(=O)[C@H](CCC(=O)O)NC(=O)[C@H](CCC(=O)O)NC(=O)[C@H](CCC(=O)O)NC(=O)CCCCCNC(=O)C1CCC(CNC(=O)CC[C@H](NC(=O)N[C@@H](CCC(=O)O)C(=O)O)C(=O)O)CC1)C(N)=O` (stereo partly shown) [PSMA-1] ({Glu-CO-γGlu}-[X1][Ahx]EEEK-NH2; C-terminus assumed): the IC50 on PSMA is 2.3 nM.
Turning to `COc1cccc2c1C(=O)c1c(O)c3c(c(O)c1C2=O)C[C@@](O)(C(=O)CO)C[C@@H]3O[C@H]1C[C@H](N)[C@H](O)[C@H](C)O1` [doxorubicin], the tumor growth result in the data set with PC3Pip flank tumors is “more rapid tumor growth”. For the same molecule, the “weight loss over the duration of the study” value with PC3Pip flank tumors (21 days) is 17.3%. In addition, the “growth inhibition of PC3Flu cells” value with PC3flu cells is reported as “potent, equal growth inhibition”. Moreover, in the data set with PC3pip cells [1], the “growth inhibition of PC3Pip cells” value is recorded as “potent, equal growth inhibition”. Also, in the data set on PC3Pip and PC3Flu cells, the “subcellular pattern of doxorubicin signal” value is given as “primarily in the nucleus”; the “uptake in PC3Pip compared with PC3Flu cells” value was “equally seen in PC3Pip and PC3Flu cell lines”.
As for `CC[C@H](C)[C@@H]([C@@H](CC(=O)N1CCC[C@H]1[C@H](OC)[C@@H](C)C(=O)N[C@H](C)[C@@H](O)c1ccccc1)OC)N(C)C(=O)[C@@H](NC(=O)[C@@H](NC)C(C)C)C(C)C` [MMAE, monomethyl auristatin E, reference compound] (H-[NMeV]V[Dil][Dolaproine]-X4), in data set [2] (160 nmol/kg), the “time by which all mice died” value is on record as not above 36 days. For the same molecule, the tumor growth entry in data set [2] (160 nmol/kg i.v. every 4 days, 5 doses) was “relatively ineffective at inhibiting tumor growth”. Besides, in [3], the “maximum tolerated dose (MTD)” value was 700 nmol/kg. Besides, in the data set with α-tubulin, the “disruption of α-tubulin” value is given as “non-selective tubulin disruption”. For the same molecule, the “selectivity, differential cytotoxicity PC3pip vs PC3flu cells” value in the data set with PC3pip cells [4] is reported as “no selectivity”.
For `CSC[C@H](NC(=O)N[C@@H](CCC(=O)O)C(=O)O)C(=O)O` [ZJ24, reference compound], the IC50 at PSMA stood at 11.7 nM.
